{"source": "paper PMC11100219", "about": "“Dual-function antimicrobial-antibiofilm peptide hybrid to tackle biofilm-forming Staphylococcus epidermidis” (Annals of Clinical Microbiology and Antimicrobials, 2024)", "key": {"[1]": {"tested_on": "preformed S. epidermidis biofilm", "experiment": "Biofilm eradication activity (peg lid, colony counting)", "assay_type": "cell-based, Staphylococcus epidermidis", "conditions": "24 h treatment", "procedure": "The eradication capacity of BiF2_5K7K against preformed biofilm was examined as previously described with some modifications. In brief, suspensions of S. epidermidis with a final density of 10^6 CFU/mL were added to 96-well microplates, then covered with 96-peg lids (Nunc™ Immuno TSP Lids, Denmark). Following 24 h of incubation at 37°C, the peg lids were washed with 0.85% NaCl to remove culture media and non-adherent cells. Afterwards, the biofilms adherent to peg lids were incubated at 37°C for 24 h with different concentrations of peptide derivatives. The peg lids were subsequently washed and placed on new plates containing PBS. The biofilms on the lid were removed using a water bath sonicator (Bandelin SONOREX™, Germany). Biofilms were subsequently diluted and then placed on TSA. Minimum biofilm eradication concentrations at 50% and 90% (MBEC50 and MBEC90) refer to the concentration of the peptide at which established biofilm was eradicated by at least 50% and 90%, respectively."}, "[2]": {"tested_on": "human lung fibroblast MRC-5 cell lines (ATCC CCL-171)", "experiment": "MTT cytotoxicity assay", "assay_type": "cell-based", "conditions": "MRC-5, 250 µg/mL (maximum concentration tested), 24 h", "procedure": "The toxicity of peptide BiF2_5K7K against human lung fibroblast MRC-5 cell lines (ATCC CCL-171) was investigated by MTT colorimetric assay. Briefly, MRC-5 cells were cultured in Minimum Essential Medium [MEM; supplemented with 10% heat-inactivated FBS and 1% Penicillin-Streptomycin] in 5% CO2 at 37°C. Following an overnight incubation, MRC-5 cells were diluted to 10,000 cells/well and placed in 96-well microplates. Subsequently, they were exposed to BiF2_5K7K at 0.98 to 250 µg/mL. After incubation for 24 h, MTT solution (0.4 mg/mL) was added to each well and incubated for an additional 3 h under 5% CO2 at 37°C. The supernatant was then removed and 100 µL DMSO added, and absorbance was measured at 570 nm using a microplate reader."}, "[3]": {"tested_on": "S. epidermidis biofilm formation genes (ica, agr)", "experiment": "Transcriptional analysis, real-time RT-PCR", "assay_type": "cell-based, Staphylococcus epidermidis", "conditions": "at MBIC50, 24 h", "procedure": "The expression level of S. epidermidis biofilm formation gene was investigated using a real-time reverse transcription-polymerase chain reaction. In brief, total RNA of S. epidermidis biofilm, both untreated and treated with BiF2_5K7K (at MBIC50 for 24 h), was extracted by a RNeasy PowerBiofilm Kit (Qiagen, USA) and immediately reverse transcribed to cDNA by iScript reserve transcription supermix (Biolabs, UK). RNAprotect Bacteria Reagent (Qiagen, USA) was used to preserve RNA during isolation. Remaining DNA was removed by treatment with DnaseI (Biolabs, UK). Real-time RT-PCR was done in duplicate using iTaq Universal SYBR Green Supermix (Bio-Rad, USA) with 5 ng of cDNA and […] of forward and reverse primers (Table S1) using a CFX96 Real-Time PCR Detection System (Bio-Rad, USA). The cycling condition was started with an initial denaturation at 95°C for 2 min, followed by 50 amplification cycles consisting of 95°C for 30 s, 56°C for 1 min, and 72°C for 1 min. Subsequently, a melting curve was generated from 65°C to 95°C at intervals of 1 s at the end of each run. To analyse the relative quantitation of gene expression, 2^− ΔΔCt method was used, and 16S ribosomal subunit (rRNA) was served as the reference or housekeeping gene."}, "[4]": {"tested_on": "mature S. epidermidis biofilm", "experiment": "Confocal laser scanning microscopy of mature biofilm", "assay_type": "cell-based, Staphylococcus epidermidis", "procedure": "The effect of BiF2_5K7K against mature biofilm was also investigated. In short, overnight cultures of S. epidermidis were diluted to 10^7 CFU/mL with TSB and further incubated at 37°C for 24 h to form biofilms. Next, wells were rinsed with sterile water and mature biofilms was treated with BiF2_5K7K at concentration of MBEC50 and further incubated for 24 h. Subsequently, biofilms were washed again, then stained with green Alexa-ConA and LIVE/DEADTM BacLight™ Bacterial Viability Kit (Invitrogen™, Thermo Fisher, USA) for 15 min. After staining, 2.5% glutaraldehyde was used to fixed biofilms, then observed under CLSM as described above."}, "[5]": {"tested_on": "all gram-positive bacterial strains", "experiment": "Mean MIC and therapeutic index, gram-positive strains", "assay_type": "cell-based", "conditions": "four gram-positive strains", "procedure": "The minimal inhibitory concentrations (MICs) of peptide derivatives versus planktonic bacteria were assessed using a modification of the broth microdilution assay previously described in the National Committee for Clinical Laboratory Standards (NCCLS). In brief, bacteria at mid-logarithmic growth were collected by centrifugation at 2,500 × g for 5 min. Subsequently, the pellet was resuspended and adjusted in Mueller-Hinton Broth (MHB; BD Bacto™, USA) to an OD620 of 0.05. Fifty µL of bacterial suspensions was transferred to 96-well microplates. Later, 50 µL of peptide derivatives at 0.98–250 µg/mL in 10 mM PBS, was added to wells and incubated for 24 h at 37°C with continuous shaking at 220 rpm. […] The experiments were done in three technical replicates and repeated independently.\nThe therapeutic index (TI) is widely used for evaluating a peptide’s efficacy and safety. It is the ratio between the minimum hemolytic concentration (MHC, the concentration causing 10% hemolysis) and the geometric mean (GM) value of the MIC [15]. […] While, both lysine-substituted peptides (BiF2_7K and BiF2_5K7K) had higher TIs against all tested biofilm-forming bacteria than did the two parent peptides, and the TI of BiF2_5K7K was higher than that of BiF2_7K."}}, "note": "Residues, ends and D or L forms follow the SMILES beside them.", "data": [{"smiles": "CC[C@H](C)[C@H](NC(=O)[C@H](CCCCN)NC(=O)[C@H](CCCCN)NC(=O)[C@@H](NC(=O)[C@H](CC(C)C)NC(=O)[C@@H](N)Cc1ccccc1)C(C)C)C(=O)N[C@@H](CCCCN)C(=O)N[C@@H](CCCCN)C(=O)N[C@H](C(=O)N[C@@H](CC(C)C)C(=O)N[C@@H](CCCNC(=N)N)C(=O)N[C@@H](CCCNC(=N)N)C(N)=O)[C@@H](C)CC", "note": "[BiF2_5K7K] (H-FLVKKIKKILRR-NH2; N-terminus assumed)", "values": [{"measurement": "MBEC50", "setting": "[1]; 24 h preformed biofilm on peg lids, 37°C", "value": 31.25, "unit": "µg/mL"}, {"measurement": "MBEC90", "setting": "[1]; more than 90% of mature biofilm eradicated", "value": 125, "unit": "µg/mL"}, {"measurement": "cell viability", "setting": "[2]", "value": "> 99", "unit": "%"}, {"measurement": "agrC and agrA gene expression", "setting": "[3]", "value": "neither agrC nor agrA gene expression changed at all"}, {"measurement": "expression of quorum-sensing genes agrD and agrB vs untreated control", "setting": "[3]", "value": "reduced"}, {"measurement": "levels of icaC or icaR genes", "setting": "[3]", "value": "no alteration"}, {"measurement": "relative expression level of icaA, icaD and icaB genes", "setting": "[3]; 2^-ΔΔCt, 16S rRNA reference, significantly upregulated", "value": "greater than 1"}, {"measurement": "fluorescence intensity ratio (live to dead cells), treated vs untreated", "setting": "[4]; at MBEC50, 24 h, p-value < 0.01", "value": "significant difference"}, {"measurement": "mature biofilm matrix (Alexa-ConA fluorescence intensity)", "setting": "[4]; at MBEC50, 24 h treatment", "value": "significant decrease"}, {"measurement": "GM +, geometric mean of MIC values from all gram-positive bacterial strains", "setting": "[5]", "value": 199.22, "unit": "µg/mL"}]}]}
